Like-named read-outs stand apart in the source and are kept apart here.
How the values were obtained:
[1] = tested on: NADPH-induced lipidic peroxidation of membrane lipids (hepatic microsomal membranes); assay: In vitro antioxidant activity (TBARS test), Method A (ADP-FeCl3 and NADPH); type: biochemical, rat; conditions: inhibition of TBARS production after 30 min incubation, read-out: Antioxidant activity IC50 μM (CL 95%)
Experimental: The antioxidant properties of compounds (6) (disclosed in example 1) and compound (23) (disclosed in example 19) and reference antioxidant compounds were assessed after NADPH-induced lipidic peroxidation of membrane lipids in rat hepatocytes using the detection of 2-thiobarbituric acid reactive substances (TBARS) by visible spectroscopy.
Hepatic microsomal membranes from male Wistar rats (200-250 g) were prepared by differential centrifugation (8000 g, 20 min; 120000 g, 1 h) in a HEPES/sucrose buffer (10 mM, 250 mM, pH 7.4) and stored at −80° C. Incubation was performed at 37° C. in a Tris-HCl/KCl (100 mM/150 mM, pH 7.4) containing microsomal membranes (2 mg prot/mL), sodium ascorbate (100 μM), and DMSO solutions of the tested compounds. Lipid peroxidation was initiated by adding ADP-FeCl3 and NADPH (Method A) or 2.5 μM FeSO4 (Method B) (as described by Boschi D. et al., J. Med. Chem. 2006, 49:2886-2897). Aliquots were taken from the incubation mixture at 5, 15, and 30 min and treated with trichloroacetic acid (TCA) 10% w/v. Lipid peroxidation was assessed by spectrophotometric (543 nm) determination of the TBARS consisting mainly of malondialdehyde (MDA). TBARS concentrations (expressed in nmol/mg protein) were obtained by interpolation with a MDA standard curve. The antioxidant activity of tested compounds was evaluated as the percent inhibition of TBARS production with respect to control samples, using the values obtained after 30 min of incubation. IC50 values were calculated by nonlinear regression analysis.

[2] = tested on: methoxamine-precontracted rabbit aortic rings; assay: In vitro NO-mediated vasorelaxation; type: cell-based
Experimental: The ability of compound (6) disclosed in example 1, to induce in vitro vasorelaxation, which is a functional marker of NO release, was assessed on methoxamine-precontracted rabbit aortic rings.
(§1) Thoracic aortas from male New Zealand rabbits or male Sprague Dawley (SD) were used. The aortas were placed immediately in Krebs-HEPES buffer (pH 7.4; composition mM: NaCl 130.0, KCl 3.7, NaHCO3 14.9, KH2PO4 1.2, MgSO4.7H2O 1.2, Glucose 11.0, HEPES 10.0, CaCl2.2H2O 1.6). Connective tissue was removed and aortas were cut into ring segments (4-5 mm in length). Each ring was placed in a 5 mL tissue bath filled with Krebs-HEPES buffer (37° C.) aerated with 95% O2 and 5% CO2 and was attached to a force transducer (Grass FT03), connected to a BIOPAC MP150 System for measurement of the isometric tension. Preparations were allowed to equilibrate for 1 h at a resting tension of 2 g for rabbit aortas and 1 g for rat aortas with changes of the buffer every 15 min. Then the rings were stimulated by exposure to 90 mM KCl (3 times) with intervening washings.
Rabbit aorta. […]
Data analysis. […] Vascular responses are expressed as percentage relaxation and plotted vs concentration. […] Responses are quantified in terms of EC50 and Emax (maximal vasodilating effect) values, obtained from the concentration-response curve by nonlinear curve fitting, using GraphPad software.

[3] = tested on: rat L-NAME-induced hypertension; assay: Rat L-NAME-induced hypertension, systolic blood pressure after single oral dose; type: in vivo; conditions: for Delta vs basal (mmHg): Comp. (6) 100 mg/kg oral, L-NAME 50 mg/kg i.p.
Experimental: To assess the in vivo NO-dependent activity, Compound (6) was evaluated for systolic blood pressure (SBP) reduction efficacy in a rat model of NO-deprivation induced by L-NAME and compared with 5-ISMN.
(§2) Fasted male SD rats (250-300 g, n=3-5 per group), obtained from Harlan Italy (Correzzana, Milan, Italy) were orally treated with tested compounds or vehicle (DMSO:Methocel 1% 2/98 v/v) in a total volume of 4 ml/kg by gavage. At each time point (1, 3, 6 and 24 h) animals were deeply anesthetized with Zoletil® 100 (3 mg/kg), given intramuscularly. Thereafter, a pressure catheter (Samba Sensors, Harvard Apparatus, UK) was introduced into the common carotid artery for central blood pressure measurement. Pressure transducer was connected to a personal computer, in order to allow real time monitor of the pressure tracing. After 10 minutes of basal recording, L-NAME (50 mg/kg) was administered intraperitoneally and the effect on SBP monitored. When the SBP stabilized (5 minutes without variations) the recording was stopped. To further confirm that functional activity was NO-dependent, at each time point blood ^15N-nitrite levels were measured following the procedure described in Example 12.

[4] = tested on: rat L-NAME-induced hypertension; assay: In vivo tolerance evaluation (L-NAME-induced hypertension after 5-day oral treatment); conditions: for Delta vs basal (mmHg): peak effect 3 hours
Experimental: as §2
To investigate whether the compound (6) induced nitrate tolerance, as observed for most of the drugs belonging to the nitrate class, the L-NAME-induced hypertension rat model described in Example 7 was performed following a repeated oral treatment. Rats were orally treated for 5 days with vehicle, compound (6) (100 mg/kg) or 5-ISMN (30 mg/kg). […] The experiments were performed at the peak effect (1 hour for 5-ISMN and 3 hours for Compound (6)), results are reported in Table 3.

[5] = tested on: rat aorta, endothelial-dependent vasodilation (response to ACh); assay: Endothelial dysfunction evaluation (vascular response to acetylcholine after treatment); type: in vivo; conditions: for Emax at 100 mg/kg: Rattus norvegicus, response to ACh, read-out: % relaxation (Emax)
Experimental: as §1
Rat aorta. After equilibration, rat aortas were precontracted with KCl (90 mM) and, when the contraction was stable, a cumulative concentration-response curve to acetylcholine (ACh, 0.01-100 μM) was added. After washout, the rings were precontracted again with KCl (90 mM). When a steady-state level of contraction was obtained, a cumulative concentration-response curve to the tested compounds (0.01-100 μM) was obtained.
Data analysis. Results are given as mean±SEM. Vascular responses are expressed as percentage relaxation and plotted vs concentration. The sensitivity of isolated aorta to different vasodilators is expressed as the concentration that elicited 50% of the maximal responses (EC50). Responses are quantified in terms of EC50 and Emax (maximal vasodilating effect) values, obtained from the concentration-response curve by nonlinear curve fitting, using GraphPad software.
Endothelial-dependent vasodilation (vascular response to acetylcholine, ACh) was assessed following 5-day treatment with Compound (6) (100 mg/kg) or 5-ISMN (30 mg/kg). A relaxant response to ACh indicated the presence of a functional endothelium. The vascular response was performed as described in Example 6.

For `COC1=C(OC)C(=O)C(CCCCCCCCCCO[N+](=O)[O-])=C(C)C1=O` [Compound (6), 10-(4,5-dimethoxy-2-methyl-3,6-dioxocyclohexa-1,4-dienyl)decyl nitrate], the IC50 [1] was 2 µM, the “relaxation at the highest concentration tested” value ([2]; 100 μM) was 89±1% and the EC50 ([2]; Oryctolagus cuniculus, methoxamine (3 μM) precontracted, functional endothelium, read-out: EC50 (concentration-dependent relaxation)) was 4.7 ± 0.2 µM. The “Delta vs basal (mmHg)” value ([3]; 1 hour) was 53.5 ± 4.5 mmHg, the “Delta vs basal (mmHg)” value ([3]; 3 hours) was 14 ± 3.8 mmHg and the “Delta vs basal (mmHg)” value ([3]; 6 hours) was 38 ± 3.6 mmHg. The “Delta vs basal (mmHg)” value ([3]; 24 hours) was 67.7 ± 16.8 mmHg, the “time over which L-NAME induced SBP increase was prevented after treatment” value ([3]; Compound (6) 100 mg/kg, single oral administration) was 6 h and the “Delta vs basal (mmHg)” value ([4]; acute treatment, Comp. (6) 100 mg/kg oral) was 14 ± 3.8 mmHg. For the same compound, the “efficacy against L-NAME-induced hypertension after 5-day treatment (nitrate tolerance), in words” value ([4]; compound (6) 100 mg/kg oral, 5 days) was “counteracted L-NAME-induced hypertension after 5-day oral treatment”, the “Delta vs basal (mmHg)” value ([4]; repeated (5 days) oral treatment, Comp. (6) 100 mg/kg) was 27.8 ± 4 mmHg and the “effect on endothelial-dependent vasorelaxation, in words” value ([5]; Compound (6) 100 mg/kg, 5-day treatment) was “did not modify endothelial-dependent vasorelaxation”. The Emax at 100 mg/kg ([5]; 120 h, repeated (5-day) Comp. (6) 100 mg/kg) was 84.3 ± 7.5% and the Emax at 100 mg/kg ([5]; acute, Comp. (6) 100 mg/kg) was 89.6 ± 4.5%.

— patent publication US9079821B2, “Quinone based nitric oxide donating compounds” (NICOX S.A., priority 2011, dated 2015)
